US9532967B2, “Use of phenethyl caffeate derivatives in the preparation of a medicament against tumor angiogenesis” (priority 2010, dated 2017)

What was measured:
[1] = system: vessel network model formed by culturing adult stem cells and vascular endothlial cells together; assay: Formation of vessel network in vitro (adult stem cells co-cultured with vascular endothlial cells); format: cell-based, human; conditions: for lengths of the formed vessel networks (Total Tube Length, TL): co-culture six days
Procedure: First, we constructed a vessel network model formed by culturing adult stem cells and vascular endothlial cells together. Adult stem cells have the function of differentiating into pericytes, and can secrete cytokines required for angiogenesis to promote the formation of new vessels. The isolated and cultured adult stem cells were cultured using EGM medium for 3-6 generations to be used. The isolated and cultured human endothlial cells were derived from the cord blood of healthy infants (38-40 weeks), in which monocytes were removed by gradient centrifugation, and the cells were cultured in EGM medium to obtain primary vascular endothlial cells, and 4-8 generations were applied after passage. The adult stem cells were implanted into a cell culture dish, maintaining cell density of 6×10^6/cm^2, and the vascular endothlial cells were implanted on the trophoblast cells of the adult stem cells after the adult stem cells were incubated at 37° C., 5% CO2 for 3 hours, and the cell density of the vascular endothlial cells reached 1×10^6/cm^2. The two kinds of cells were co-cultured for six days, then the formation of tubular networks was observed, and the new vessel networks were labeled through CD31 fluorescence staining and horseradish peroxidase staining.
Different doses of 3,4-diacetyl phenethyl caffeate (prepared according to conventional chemical method by the Laboratory of Peking University Health Science center) were co-cultured with the in vitro vessel network system. […] However, there is no significant difference among the total numbers of ECs of CD31+ in respective groups. The total numbers of ECs in the control group, DMSO group, 5 μm group, 10 μm group, 20 μm group, 50 μm group and 100 μm group are 7.52±1.24/mm^2, 8.66±1.31/mm^2, 8.87±1.59/mm^2, 6.0±1.72/mm^2, 6.22±1.42/mm^2, […], 8.33±0.79/mm^2 respectively, and there is no significant difference among respective groups through analysis.

[2] = system: human hepatocellular carcinoma BEL-7402 cell lines; assay: Growth of tumors of BALB/c nude mice inoculated with BEL-7402 cells in vivo; conditions: 20 mg/kg by gavage, 3 weeks
Procedure: First, 1×10^6 cells of human hepatocellular carcinoma BEL-7402 cell lines were injected subcutaneously (sc) into the forelimbs of BALB/c male nude mice, and the mice with tumor were killed after the tumor was formed, the skin of the mice was cut off, and the complete tumor tissue was separated and removed, and then immersed into physiological saline and cut into pieces with diameter of 2 mm. The tumor tissue pieces were implanted subcutaneously into the forelimbs of nude mice in another group for drug experiments. The nude mice with tumor were randomly divided equally into an experimental group and control group, with 10 mice in each group. […] Experimental data, such as tumor size (i.e., long diameter a and short diameter b), experimental animal weight (g), etc., were recorded regularly, and photographs were taken. Measurement result was recorded every time, and the tumor volume and the ratio of tumor volume to tumor weight were calculated for each animal based on the measurement results.
Formula for calculating the tumor volume is: v=a×b2/2 (a represents the long diameter of the tumor and b represents the short diameter of the tumor, which are in unit of mm; and V is calculated in unit of mm^3). […]

[3] = system: angiogenesis model by culturing stromal cells and vascular endothlial cells (ECs) together; assay: Tumor angiogenesis mediated by pericytes (stromal cells co-cultured with vascular endothlial cells); format: cell-based; conditions: for Length of the formed vessel network (Total Tube Length, TL, n = 8): control 436; for effect on tumor angiogenesis mediated by pericytes: concentrations of 50-100 μM, result in words
Procedure: We constructed an angiogenesis model by culturing stromal cells and vascular endothlial cells (ECs) together. Stromal cells and endothlial cells were graciously provided by Vascular Biology Medical Center of Medical School of the State University in Indiana. The stromal cells were implanted into a cell culture dish, maintaining cell density of 6×10^6/cm^2, and ECs were implanted on the trophoblast cells of the stromal cells after the stromal cells were incubated in the EBM-2/5% FBS culture medium for 3 hours, with cell density of ECs reaching 1×10^6/cm^2. The two kinds of cells were co-cultured in EBM-2/5% FBS culture medium for six days, then the formation of tubular vessels was observed, and EC vessels were labeled through CD31 fluorescence staining and horseradish peroxidase staining.
Then, the inhibition of compounds phenethyl caffeate and 3,4-diacetyl phenethyl caffeate with concentrations of 50-100 μM on tumor angiogenesis mediated by pericytes was studied.

SMILES: CC(=O)Oc1ccc(/C=C/C(=O)OCCc2ccccc2)cc1OC(C)=O [3,4-diacetyl phenethyl caffeate]
- numbers of branchs (NB) of the vessels ([1]; 50 μM group): 0.13±0.026 /mm^2
- lengths of the formed vessel networks (Total Tube Length, TL) ([1]; 50 μM group): 0.084±0.032 mm/mm^2
- numbers of branchs (NB) of the vessels ([1]; 5 μm group): 6.12±0.48 /mm^2
- total numbers of ECs (CD31+) ([1]; 5 μm group): 8.87±1.59 /mm^2
- lengths of the formed vessel networks (Total Tube Length, TL) ([1]; 5 μm group): 2.802±0.212 mm/mm^2
- numbers of branchs (NB) of the vessels ([1]; 10 μm group): 1.55±0.17 /mm^2
- total numbers of ECs (CD31+) ([1]; 10 μm group): 6.0±1.72 /mm^2
- lengths of the formed vessel networks (Total Tube Length, TL) ([1]; 10 μm group): 0.874±0.117 mm/mm^2
- numbers of branchs (NB) of the vessels ([1]; 20 μm group): 0.50±0.063 /mm^2
- total numbers of ECs (CD31+) ([1]; 20 μm group): 6.22±1.42 /mm^2
- lengths of the formed vessel networks (Total Tube Length, TL) ([1]; 20 μm group): 0.337±0.89 mm/mm^2
- numbers of branchs (NB) of the vessels ([1]; 100 μm group): 0.04±0.001 /mm^2
- total numbers of ECs (CD31+) ([1]; 100 μm group): 8.33±0.79 /mm^2
- lengths of the formed vessel networks (Total Tube Length, TL) ([1]; 100 μm group): 0.0054±0.002 mm/mm^2
- effect on the formation of vessel networks in vitro ([1]; result in words): inhibitory effect
- effect on the growth of tumors ([2]; result in words): inhibitory effect
- average tumor volume of the mice ([2]; six days every week, FIG. 2): maintained at the original level, with no significant changes
- Length of the formed vessel network (Total Tube Length, TL, n = 8) ([3]; 50 μM): 114 ± 20
- Length of the formed vessel network (Total Tube Length, TL, n = 8) ([3]; 100 μM): 20 ± 11
- effect on tumor angiogenesis mediated by pericytes [3]: inhibitory effect
- effect on tumor angiogenesis mediated by pericytes ([3]; listed as diacetyl phenethyl caffeate): significant inhibitory effect

SMILES: O=C(/C=C/c1ccc(O)c(O)c1)OCCc1ccccc1 [phenethyl caffeate]
- Length of the formed vessel network (Total Tube Length, TL, n = 8) ([3]; 50 μM): 332 ± 24
- Length of the formed vessel network (Total Tube Length, TL, n = 8) ([3]; 100 μM): 314 ± 27
- effect on tumor angiogenesis mediated by pericytes [3]: no inhibitory effect
